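48-hour exposure; five concentrations; linearly interpolated endpoints. GI50: concentration for 50% inhibition of growth.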 Calls of active or inactive are those of the source. Cut-off read from the data, not from the text of the source: active = GI50 up to about 1.1 µM and inactive = higher. A value given as a limit tells only on which side of the number the result lay.

Test systems include 786-0; A498; CCRF-CEM; COLO 205; HCT-116; K562; KM12; M14; MDA-MB-231; MDA-MB-435; NCI-H226; OVCAR-5; OVCAR-8; SF-268; SK-MEL-5; SK-OV-3; SNB-75; SR; T47D; NCI/ADR-RES.
Common to all, as to assay: NCI-60 cell line screen, 48 h

Consider `O=C1C(Cl)=C(Cl)C(=O)N1c1ccc(F)cc1` [FLUOROIMIDE], for which the GI50 was 16.4 µM (inactive) in the assay on 786-0; > 100 µM (inactive) in the assay on A498; 2.75 µM (inactive) with CCRF-CEM; 14.4 µM (inactive) with COLO 205; 26 µM (inactive) with HCT-116; 5.11 µM (inactive) in the assay with K562. The GI50 in the assay with KM12 was 20.8 µM (inactive); with M14, 19.5 µM (inactive); in the assay on MDA-MB-231 it was 17.1 µM (inactive); in the assay with MDA-MB-435, 17.9 µM (inactive); in the assay with NCI-H226 it was 42.7 µM (inactive); in the assay on OVCAR-5, 20.9 µM (inactive). Also, the GI50 is 21.1 µM (inactive) in the assay with OVCAR-8; 28.8 µM (inactive) with SF-268; 38.3 µM (inactive) with SK-MEL-5; 28.6 µM (inactive) with SK-OV-3; 12.8 µM (inactive) in the assay on SNB-75; 6.98 µM (inactive) in the assay with SR. The GI50 in the assay on T47D is 17.8 µM (inactive).

`COc1ccc(/C=N/c2ccc(-c3nc4ccccc4s3)cc2)cc1OC`: the GI50 was 19 µM (inactive) with 786-0; 18.8 µM (inactive) in the assay on A498; 12.8 µM (inactive) in the assay on CCRF-CEM; 19.3 µM (inactive) in the assay with COLO 205; 29.1 µM (inactive) in the assay with HCT-116; 27.4 µM (inactive) in the assay on K562. In addition, the GI50 was 26.4 µM (inactive) with KM12; 35.7 µM (inactive) with M14; 33.3 µM (inactive) with MDA-MB-435; 30.1 µM (inactive) in the assay with NCI-H226; 27.5 µM (inactive) with NCI/ADR-RES; 36.5 µM (inactive) with OVCAR-5. The GI50 in the assay with OVCAR-8 is 36.2 µM (inactive); in the assay with SF-268 it was 28 µM (inactive); in the assay with SK-MEL-5, 16.1 µM (inactive); in the assay with SK-OV-3, 31 µM (inactive); in the assay on SNB-75, 25.7 µM (inactive); in the assay on SR, 27.8 µM (inactive). For the same compound, the GI50 with T47D was 17.4 µM (inactive).

Regarding `O=c1c2cc(S(=O)(=O)Nc3c(Cl)cccc3Cl)ccc2ncn1NS(=O)(=O)c1ccc2ccccc2c1`, the GI50 with 786-0 is > 62.5 µM (inactive); with CCRF-CEM, 17.1 µM (inactive); in the assay with COLO 205, 46.6 µM (inactive); with HCT-116, 61.8 µM (inactive); in the assay with K562, 16.6 µM (inactive); with KM12 it was 15.2 µM (inactive). The GI50 with M14 is > 62.5 µM (inactive); with MDA-MB-231 it was 42.4 µM (inactive); with MDA-MB-435 it was > 62.5 µM (inactive); with NCI-H226 it was 8.87 µM (inactive); with NCI/ADR-RES it was > 62.5 µM (inactive); in the assay on OVCAR-5, 12.6 µM (inactive). The GI50 in the assay on OVCAR-8 was > 62.5 µM (inactive); in the assay on SF-268, > 62.5 µM (inactive); in the assay with SK-OV-3, > 62.5 µM (inactive); in the assay with SNB-75, 50.1 µM (inactive); in the assay with SR, 40.9 µM (inactive).

On to `n1onc2c1NC1Nc3nonc3NC1N2` (centres undefined), for which the GI50 with 786-0, in the assay on A498, in the assay with CCRF-CEM, in the assay on COLO 205, with HCT-116 and in the assay with K562 was > 100 µM (inactive) in each case. Besides, the GI50 in the assay on KM12, in the assay on M14, in the assay with MDA-MB-435, in the assay on NCI-H226, with NCI/ADR-RES and with OVCAR-5 was > 100 µM (inactive) throughout. Further, the GI50 in the assay on OVCAR-8, in the assay on SF-268, in the assay with SK-MEL-5, in the assay on SK-OV-3, in the assay on SNB-75 and in the assay on T47D was > 100 µM (inactive) each time.

For the compound `COc1cc(C2SCC(=O)N2c2ccc(Cl)cc2)cc(OC)c1OC` (centres undefined), the GI50 is > 58.5 µM (inactive) in the assay on 786-0; > 100 µM (inactive) with A498; 1.99 µM (inactive) in the assay with CCRF-CEM; 1.94 µM (inactive) in the assay on COLO 205; 8.11 µM (inactive) in the assay with HCT-116; 0.11 µM (active) with K562. Besides, the GI50 was 3.38 µM (inactive) with KM12; 0.266 µM (active) in the assay on M14; > 100 µM (inactive) in the assay on MDA-MB-231; 0.635 µM (active) with MDA-MB-435; > 49.1 µM (inactive) in the assay on NCI-H226; 20.4 µM (inactive) in the assay on NCI/ADR-RES. Besides, the GI50 is 0.252 µM (active) in the assay with OVCAR-5; > 45.4 µM (inactive) with OVCAR-8; 97.5 µM (inactive) in the assay on SF-268; 1.26 µM (inactive) in the assay with SK-MEL-5; > 94.6 µM (inactive) in the assay on SK-OV-3; > 100 µM (inactive) in the assay with SNB-75. Further, the GI50 in the assay on SR was 1.12 µM (active).

`COc1ccc(O[C@H](COCc2ccccc2)C[C@@H]2COC(C)(C)O2)cc1`: the GI50 in the assay on 786-0, with A498, in the assay with CCRF-CEM, in the assay on COLO 205, in the assay on HCT-116 and with K562 was > 100 µM (inactive) in each case. In addition, the GI50 in the assay with KM12, in the assay with M14, in the assay with MDA-MB-231, in the assay on MDA-MB-435, in the assay on NCI-H226 and with NCI/ADR-RES was > 100 µM (inactive) throughout. The GI50 in the assay on OVCAR-5, with OVCAR-8, in the assay on SF-268, with SK-MEL-5, in the assay with SK-OV-3 and in the assay on SNB-75 was > 100 µM (inactive) in each case. For the same compound, the GI50 in the assay on SR is > 100 µM (inactive).

`O=C(/N=N/c1cccc(Cl)c1)NNc1cccc(Cl)c1`: the GI50 with 786-0 is 15.1 µM (inactive); in the assay with A498, 17.7 µM (inactive); in the assay with CCRF-CEM it was 18.2 µM (inactive); in the assay with HCT-116 it was 8.22 µM (inactive); in the assay on K562 it was 10.6 µM (inactive); in the assay with M14, 14.4 µM (inactive). Moreover, the GI50 with MDA-MB-231 is 23.2 µM (inactive); in the assay with MDA-MB-435, 11.5 µM (inactive); in the assay on NCI-H226, 23.9 µM (inactive); in the assay with OVCAR-5 it was 15.8 µM (inactive); with OVCAR-8, 17.3 µM (inactive); with SF-268, 24.7 µM (inactive). Further, the GI50 with SK-MEL-5 is 17.9 µM (inactive); with SNB-75, 28.5 µM (inactive); in the assay on SR it was 13.8 µM (inactive); with T47D it was 10.8 µM (inactive).

As to `CCOC(=O)CCCc1cc(O)c2c(C)c3[nH]c4ccc(Cl)cc4c3c(C)c2n1`, the GI50 with 786-0 was 20.4 µM (inactive); in the assay on A498, 15.3 µM (inactive); in the assay on CCRF-CEM, 42.5 µM (inactive); in the assay with COLO 205, 41.8 µM (inactive); in the assay with HCT-116 it was 34.8 µM (inactive); in the assay with K562, 26.1 µM (inactive). Moreover, the GI50 with KM12 was 37.2 µM (inactive); with M14 it was 34.9 µM (inactive); with MDA-MB-231, 23.9 µM (inactive); in the assay with MDA-MB-435, 18.5 µM (inactive); with NCI-H226, 19.1 µM (inactive); in the assay with NCI/ADR-RES, 23.4 µM (inactive). Moreover, the GI50 is 82.6 µM (inactive) with OVCAR-5; 24.9 µM (inactive) in the assay on OVCAR-8; 26.2 µM (inactive) in the assay with SF-268; 19.8 µM (inactive) in the assay on SK-MEL-5; 25.9 µM (inactive) in the assay with SNB-75; 44.4 µM (inactive) with SR.

Consider `NC1=Nc2ncccc2C(=O)NN1`, for which the GI50 in the assay on 786-0, with A498, with CCRF-CEM, in the assay on HCT-116, in the assay with K562 and in the assay on KM12 was > 10 µM (inactive) in each case. Further, the GI50 in the assay on M14, in the assay on MDA-MB-231, in the assay with MDA-MB-435, in the assay on NCI-H226, in the assay with OVCAR-5 and with OVCAR-8 was > 10 µM (inactive) each time. The GI50 with SF-268, in the assay with SK-MEL-5, in the assay with SK-OV-3, in the assay with SNB-75, with SR and with T47D was > 10 µM (inactive) throughout.

In the case of `CCSc1nc(N2CCCC2)s[s+]1.[O-][Cl+3]([O-])([O-])[O-]`, the GI50 in the assay with 786-0 was 58.1 µM (inactive); in the assay with A498, 6.75 µM (inactive); in the assay on CCRF-CEM it was 0.764 µM (active); in the assay on COLO 205 it was 2.23 µM (inactive); in the assay with HCT-116 it was 28.4 µM (inactive); with K562, 1 µM (active). Further, the GI50 was 39.4 µM (inactive) in the assay with KM12; 25.4 µM (inactive) in the assay with M14; 44.6 µM (inactive) with MDA-MB-231; 13.6 µM (inactive) in the assay with MDA-MB-435; 63.4 µM (inactive) in the assay on NCI-H226; > 100 µM (inactive) in the assay on NCI/ADR-RES. Moreover, the GI50 was > 100 µM (inactive) with OVCAR-5; 39.3 µM (inactive) in the assay with OVCAR-8; 40.2 µM (inactive) in the assay on SF-268; 0.08 µM (active) in the assay on SK-MEL-5; 84.1 µM (inactive) in the assay with SK-OV-3; 24.3 µM (inactive) with SNB-75. Besides, the GI50 in the assay on SR was 1.04 µM (active).

Turning to `Cc1ccc(S(=O)(=O)N[C@@H](Cc2ccccc2)C(=O)CCl)cc1` [TPCK], the GI50 was 13.9 µM (inactive) with 786-0; 17.8 µM (inactive) with A498; 3.7 µM (inactive) in the assay with CCRF-CEM; 17.5 µM (inactive) with COLO 205; 11.6 µM (inactive) with HCT-116; 9.75 µM (inactive) with K562. In addition, the GI50 in the assay with M14 is 13.4 µM (inactive); in the assay on MDA-MB-231, 14.2 µM (inactive); in the assay on MDA-MB-435, 14.3 µM (inactive); in the assay with NCI-H226, 15.2 µM (inactive); in the assay on NCI/ADR-RES, 19.9 µM (inactive); in the assay on OVCAR-5, 16.6 µM (inactive). The GI50 in the assay with OVCAR-8 was 13.7 µM (inactive); in the assay with SF-268, 15.7 µM (inactive); in the assay on SK-MEL-5, 12.2 µM (inactive); in the assay on SK-OV-3 it was 24.2 µM (inactive); in the assay with SNB-75, 14.3 µM (inactive).

Values taken from ChEMBL document CHEMBL1201862, “PubChem BioAssay data set” (2004).
